# pEC50: −log10 of the molar value.
# Target: T1, GPR119 (UniProt Q8TDV5, S309L, species not given)
# T1 sequence (Q8TDV5 1-335 S309L): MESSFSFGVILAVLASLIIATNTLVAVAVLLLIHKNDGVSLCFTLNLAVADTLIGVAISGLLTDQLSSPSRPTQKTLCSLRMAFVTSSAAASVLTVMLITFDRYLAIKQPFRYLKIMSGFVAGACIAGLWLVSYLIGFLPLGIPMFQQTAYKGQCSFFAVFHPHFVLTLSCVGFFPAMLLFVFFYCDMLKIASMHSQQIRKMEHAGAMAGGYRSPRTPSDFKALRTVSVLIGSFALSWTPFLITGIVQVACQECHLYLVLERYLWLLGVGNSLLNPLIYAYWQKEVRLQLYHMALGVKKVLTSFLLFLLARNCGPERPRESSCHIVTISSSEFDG
# Assay: GPR119 signaling, cyclic AMP (cAMP) HTRF assay
# Assay type: cell-based, human (S309L variant) or murine
# Conditions: CHO cells with Gα15 and murine GPR119 or HEK293 Flp-In cells with human GPR119 S309L, read-out: EC50 (agonist activation of GPR119, cAMP)
# Excerpt: The title compound was synthesized using 2-{2-[1-(5-chloropyrimidin-2-yl)piperidin-4-yl]cyclopropyl}ethyl 4-methylbenzenesulfonate from step 1 of this example by a general procedure analogous that described in Example 59. LRMS calc: 424.9; obs: 425.01 (M+1). Measurement of GPR119Signaling Using a Cyclic AMP (cAMP) Homogenous Time Resolved Fluorescence (HTRF) Assay
# Chinese hamster ovary (CHO) cell lines stably transfected with the permissive guanine nucleotide binding protein alpha 15 (Gα15) and murine GPR119 were maintained in DMEM media containing FBS, penicillin-streptomycin, puromycin, and G418 (geneticin). Alternatively, human embryonic kidney (HEK)293 Flp-In cells (Invitrogen, Carlsbad, Calif.) were stably transfected with a human SNP variant (S309L) of GPR119 and maintained in DMEM media containing FBS, penicillin-streptomycin, and hygromycin. Agonist activation of the GPR119 receptor was measured in receptor transfected cells described above, treated with compounds of this invention, using a commercial homogenous time resolved fluorescence (HTRF) kit for measurement of cAMP (CisBio, Bedford, Mass.). The assay was performed in 96-well half-volume plates (murine) or 384-well plates (human) following the manufacturers instructions. Briefly, suspended cells were incubated with a dose titration of test compound at room temperature for 60 min, lysed, and incubated with HTRF reagents for an additional 60 min. The plate was read using an Envision multilabel reader (Perkin Elmer) adjusted to read time resolved fluorescence and the cAMP concentrations were extrapolated from a cAMP calibration curve. […] The concentration of test compound required to stimulate a half-maximal response (EC50), and efficacy as compared to an internal agonist control, was determined from a sigmoidal 4-parameter curve fit of the resulting plot of normalized activity versus compound concentration.
row,SMILES,pEC50
1,"Cc1nc(C#N)cc(NCC[C@@H]2C[C@@H]2C2CCN(c3ncc(Cl)cn3)CC2)n1 (racemic) [Ex 4, rac-cis-6-[(2-{2-[1-(5-chloropyrimidin-2-yl)piperidin-4-yl]cyclopropyl}ethyl)amino]-2-methylpyrimidine-4-carbonitrile]",> 8.00
2,"Cc1nc(C#N)cc(NCC[C@H]2C[C@@H]2C2CCN(c3ncc(Cl)cn3)CC2)n1 (relative stereo) [Ex 61, trans 6-[(2-{2-[1-(5-chloropyrimidin-2-yl)piperidin-4-yl]cyclopropyl}ethyl)amino]-2-methylpyrimidine-4-carbonitrile]",> 8.00
3,"CS(=O)(=O)c1ccc(NCC[C@@H]2C[C@H]2C2CCN(c3ncc(Cl)cn3)CC2)cc1 (single isomer, unassigned) [Ex 58, trans-N-(2-{2-[1-(5-chloropyrimidin-2-yl)piperidin-4-yl]cyclopropyl}ethyl)-4-(methylsulfonyl)aniline]",6.70 to 7.30
4,"CS(=O)(=O)c1ccc(NCC[C@@H]2C[C@H]2C2CCN(c3ncc(Cl)cn3)CC2)cc1 (single isomer, unassigned) [Ex 60, trans N-(2-{2-[1-(5-chloropyrimidin-2-yl)piperidin-4-yl]cyclopropyl}ethyl)-4-(methylsulfonyl)aniline]",6.70 to 7.30
5,"Cc1nc(C#N)cc(NCC[C@@H]2C[C@@H]2C2CCN(c3ncc(Cl)cn3)CC2)n1 [Ex 5, 6-[(2-{(1S,2S)-2-[1-(5-chloropyrimidin-2-yl)piperidin-4-yl]cyclopropyl}ethyl)amino]-2-methylpyrimidine-4-carbonitrile]",7.30 to 8.00
6,"CS(=O)(=O)c1ccc(NCC[C@@H]2C[C@@H]2C2CCN(c3ncc(Cl)cn3)CC2)nc1 [Ex 6, N-(2-{(1S,2S)-2-[1-(5-chloropyrimidin-2-yl)piperidin-4-yl]cyclopropyl}ethyl)-5-(methylsulfonyl)pyridin-2-amine]",7.30 to 8.00
7,"CS(=O)(=O)c1ccc(NCC[C@@H]2C[C@@H]2C2CCN(c3ncc(Cl)cn3)CC2)cc1 [Ex 7, N-(2-{(1S,2S)-2-[1-(5-chloropyrimidin-2-yl)piperidin-4-yl]cyclopropyl}ethyl)-4-(methylsulfonyl)aniline]",> 8.00
8,"Clc1cnc(N2CCC([C@H]3C[C@H]3CCNc3ccc(-n4ccnn4)cn3)CC2)nc1 [Ex 8, N-(2-{(1S,2S)-2-[1-(5-chloropyrimidin-2-yl)piperidin-4-yl]cyclopropyl}ethyl)-5-(1H-1,2,3-triazol-1-yl)pyridin-2-amine]",> 8.00
9,"CN(CC[C@@H]1C[C@@H]1C1CCN(c2ncc(Cl)cn2)CC1)c1ccc(S(C)(=O)=O)cc1 [Ex 9, N-(2-{(1S,2S)-2-[1-(5-chloropyrimidin-2-yl)piperidin-4-yl]cyclopropyl}ethyl)-N-methyl-4-(methylsulfonyl)aniline]",6.70 to 7.30
10,"Clc1cnc(N2CCC([C@H]3C[C@H]3CCNc3ccc(-n4cncn4)cc3)CC2)nc1 [Ex 11, N-(2-{(1S,2S)-2-[1-(5-chloropyrimidin-2-yl)piperidin-4-yl]cyclopropyl}ethyl)-4-(1H-1,2,4-triazol-1-yl)aniline]",> 8.00
11,"Clc1cnc(N2CCC([C@H]3C[C@H]3CCNc3ccc(-c4ccn[nH]4)cc3)CC2)nc1 [Ex 12, N-(2-{(1S,2S)-2-[1-(5-chloropyrimidin-2-yl)piperidin-4-yl]cyclopropyl}ethyl)-4-(1H-pyrazol-5-yl)aniline]",> 8.00
12,"Cc1cc(NCC[C@@H]2C[C@@H]2C2CCN(c3ncc(Cl)cn3)CC2)cc(C#N)n1 [Ex 22, 4-[(2-{(1S,2S)-2-[1-(5-chloropyrimidin-2-yl)piperidin-4-yl]cyclopropyl}ethyl)amino]-6-methylpyridine-2-carbonitrile]",> 8.00
13,"Clc1cnc(N2CCC([C@H]3C[C@H]3CCNc3ccc(-n4cnnc4)cc3)CC2)nc1 [Ex 25, N-(2-{(1S,2S)-2-[1-(5-chloropyrimidin-2-yl)piperidin-4-yl]cyclopropyl}ethyl)-4-(4H-1,2,4-triazol-4-yl)aniline]",> 8.00

# Further lines, results first:
row,pEC50,SMILES
1,7.30 to 8.00,"Clc1cnc(N2CCC(C3CC3CCNc3ccc(-n4cncn4)nc3)CC2)nc1 (single isomer, unassigned) [Ex 59, trans-N-(2-{2-[1-(5-chloropyrimidin-2-yl)piperidin-4-yl]cyclopropyl}ethyl)-6-1H-1,2,4-triazol-1-yl)pyridin-3-amine]"
2,7.30 to 8.00,"Clc1cnc(N2CCC([C@@H]3C[C@H]3CCNc3ccc(-n4cncn4)nc3)CC2)nc1 (single isomer, unassigned) [Ex 62, trans N-(2-{2-[1-(5-chloropyrimidin-2-yl)piperidin-4-yl]cyclopropyl}ethyl)-6-(1H-1,2,4-triazol-1-yl)pyridin-3-amine]"
3,> 8.00,"Clc1cnc(N2CCC([C@H]3C[C@H]3CCNc3ccc(-n4cnnn4)cc3)CC2)nc1 [Ex 10, N-(2-{(1S,2S)-2-[1-(5-chloropyrimidin-2-yl)piperidin-4-yl]cyclopropyl}ethyl)-4-(1H-tetrazol-1-yl)aniline]"
4,7.30 to 8.00,"Cn1cnnc1-c1ccc(NCC[C@@H]2C[C@@H]2C2CCN(c3ncc(Cl)cn3)CC2)cc1 [Ex 13, N-(2-{(1S,2S)-2-[1-(5-chloropyrimidin-2-yl)piperidin-4-yl]cyclopropyl}ethyl)-4-(4-methyl-4H-1,2,4-triazol-3-yl)aniline]"
5,> 8.00,"Clc1cnc(N2CCC([C@H]3C[C@H]3CCNc3ccc(-n4cncn4)nc3)CC2)nc1 [Ex 14, N-(2-{(1S,2S)-2-[1-(5-chloropyrimidin-2-yl)piperidin-4-yl]cyclopropyl}ethyl)-6-(1H-1,2,4-triazol-1-yl)pyridin-3-amine]"
6,> 8.00,"Clc1cnc(N2CCC([C@H]3C[C@H]3CCNc3ccc(-n4cnnn4)nc3)CC2)nc1 [Ex 15, N-(2-{(1S,2S)-2-[1-(5-chloropyrimidin-2-yl)piperidin-4-yl]cyclopropyl}ethyl)-6-(1H-tetrazol-1-yl)pyridin-3-amine]"
7,7.30 to 8.00,"Clc1cnc(N2CCC([C@H]3C[C@H]3CCNc3cnc(-n4cncn4)nc3)CC2)nc1 [Ex 16, N-(2-{(1S,2S)-2-[1-(5-chloropyrimidin-2-yl)piperidin-4-yl]cyclopropyl}ethyl)-2-(1H-1,2,4-triazol-1-yl)pyrimidin-5-amine]"
8,> 8.00,"Cc1nnn(-c2ccc(NCC[C@@H]3C[C@@H]3C3CCN(c4ncc(Cl)cn4)CC3)cn2)n1 [Ex 17, N-(2-{(1S,2S)-2-[1-(5-chloropyrimidin-2-yl)piperidin-4-yl]cyclopropyl}ethyl)-6-(5-methyl-2H-tetrazol-2-yl)pyridin-3-amine]"
9,7.30 to 8.00,"Cc1nnnn1-c1ccc(NCC[C@@H]2C[C@@H]2C2CCN(c3ncc(Cl)cn3)CC2)cn1 [Ex 18, N-(2-{(1S,2S)-2-[1-(5-chloropyrimidin-2-yl)piperidin-4-yl]cyclopropyl}ethyl)-6-(5-methyl-1H-tetrazol-1-yl)pyridin-3-amine]"
10,7.30 to 8.00,"Clc1cnc(N2CCC([C@H]3C[C@H]3CCNc3ccc(-n4nccn4)nc3)CC2)nc1 [Ex 19, N-(2-{(1S,2S)-2-[1-(5-chloropyrimidin-2-yl)piperidin-4-yl]cyclopropyl}ethyl)-6-(2H-1,2,3-triazol-2-yl)pyridin-3-amine]"
11,7.30 to 8.00,"O=C1CCCN1c1ccc(NCC[C@@H]2C[C@@H]2C2CCN(c3ncc(Cl)cn3)CC2)cn1 [Ex 20, 1-{5-[(2-{(1S,2S)-2-[1-(5-chloropyrimidin-2-yl)piperidin-4-yl]cyclopropyl}ethyl)amino]pyridin-2-yl}pyrrolidin-2-one]"
12,> 8.00,"Clc1cnc(N2CCC([C@H]3C[C@H]3CCNc3ccc(-n4ccnn4)cc3)CC2)nc1 [Ex 21, N-(2-{(1S,2S)-2-[1-(5-chloropyrimidin-2-yl)piperidin-4-yl]cyclopropyl}ethyl)-4-(1H-1,2,3-triazol-1-yl)aniline]"
13,> 8.00,"Clc1cnc(N2CCC([C@H]3C[C@H]3CCNc3cnc(-n4cncn4)cn3)CC2)nc1 [Ex 23, N-(2-{(1S,2S)-2-[1-(5-chloropyrimidin-2-yl)piperidin-4-yl]cyclopropyl}ethyl)-5-(1H-1,2,4-triazol-1-yl)pyrazin-2-amine]"
14,> 8.00,"Clc1cnc(N2CCC([C@H]3C[C@H]3CCNc3ccc(-n4cnnn4)cn3)CC2)nc1 [Ex 24, N-(2-{(1S,2S)-2-[1-(5-chloropyrimidin-2-yl)piperidin-4-yl]cyclopropyl}ethyl)-5-(1H-tetrazol-1-yl)pyridin-2-amine]"
